Measured values taken from the supplement of paper PMC10307832.

Legend:
Experiment in all cases: relative viability (nuclei count vs DMSO), 5 days (fraction); higher = more cells survive
[1] = test system: 201T
Method in brief: (§1)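 The day after seeding in 1536-well plates, lung cancer cell lines were treated by pin tool with a single drug, or with a fixed anchor-drug dose together with five library-drug doses (not always all listed) in √10 steps. After 5 days, a combined fix-and-stain solution (final 0.05% Triton X-100, 1% formaldehyde, 1 ug/ml Hoechst) was added. Nuclei counted on 4× images gave relative viability as treated counts over vehicle counts, reported as the median of duplicate plates.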

[2] = test system: A-427
Method in brief: as §1

[3] = test system: COR-L23
Method in brief: as §1

[4] = test system: H3255
Method in brief: as §1

[5] = test system: HCC-44
Method in brief: as §1

[6] = test system: LC-2-ad
Method in brief: as §1

[7] = test system: LCLC-103H
Method in brief: as §1

[8] = test system: LCLC-97TM1
Method in brief: as §1

[9] = test system: LK-2
Method in brief: as §1

[10] = test system: LU99A
Method in brief: as §1

[11] = test system: NCI-H1563
Method in brief: as §1

[12] = test system: NCI-H1793
Method in brief: as §1

[13] = test system: NCI-H2228
Method in brief: as §1

[14] = test system: NCI-H2347
Method in brief: as §1

[15] = test system: NCI-H23
Method in brief: as §1

[16] = test system: NCI-H460
Method in brief: as §1

[17] = test system: NCI-H596
Method in brief: as §1

[18] = test system: NCI-H727
Method in brief: as §1

[19] = test system: PC-14
Method in brief: as §1

[20] = test system: PC-3 [JPC-3]
Method in brief: as §1

[21] = test system: SW 1573
Method in brief: as §1

SMILES: COc1nc(C)cnc1NS(=O)(=O)c1cccnc1-c1ccc(-c2nnco2)cc1 [Zibotentan] + C[C@]1(O)C[C@@H](c2nc(-c3ccc4ccc(-c5ccccc5)nc4c3)c3c(N)nccn32)C1 [Linsitinib] (partner 1 µM)
- relative viability ([1]; first compound 0.08 µM): 1
- relative viability ([1]; first compound 0.253 µM): 1.02
- relative viability ([1]; first compound 0.8 µM): 1.01
- relative viability ([1]; first compound 2.53 µM): 1.13
- relative viability ([2]; first compound 0.08 µM): 1.12
- relative viability ([2]; first compound 0.253 µM): 1.17
- relative viability ([2]; first compound 0.8 µM): 1.14
- relative viability ([2]; first compound 2.53 µM): 1.12
- relative viability ([3]; first compound 0.08 µM): 1.02
- relative viability ([3]; first compound 0.253 µM): 0.748
- relative viability ([3]; first compound 0.8 µM): 0.896
- relative viability ([3]; first compound 2.53 µM): 1.14
- relative viability ([4]; first compound 0.08 µM): 1.02
- relative viability ([4]; first compound 0.253 µM): 0.998
- relative viability ([4]; first compound 0.8 µM): 0.899
- relative viability ([4]; first compound 2.53 µM): 0.983
- relative viability ([5]; first compound 0.08 µM): 0.759
- relative viability ([5]; first compound 0.253 µM): 0.614
- relative viability ([5]; first compound 0.8 µM): 0.747
- relative viability ([5]; first compound 2.53 µM): 0.703
- relative viability ([6]; first compound 0.08 µM): 0.904
- relative viability ([6]; first compound 0.253 µM): 0.828
- relative viability ([6]; first compound 0.8 µM): 0.87
- relative viability ([6]; first compound 2.53 µM): 0.976
- relative viability ([7]; first compound 0.08 µM): 1.09
- relative viability ([7]; first compound 0.253 µM): 0.951
- relative viability ([7]; first compound 0.8 µM): 1.06
- relative viability ([7]; first compound 2.53 µM): 1.2
- relative viability ([8]; first compound 0.08 µM): 0.152
- relative viability ([8]; first compound 0.253 µM): 0.171
- relative viability ([8]; first compound 0.8 µM): 0.175
- relative viability ([8]; first compound 2.53 µM): 0.215
- relative viability ([9]; first compound 0.08 µM): 0.709
- relative viability ([9]; first compound 0.253 µM): 0.535
- relative viability ([9]; first compound 2.53 µM): 0.701
- relative viability ([10]; first compound 0.08 µM): 0.602
- relative viability ([10]; first compound 0.253 µM): 0.528
- relative viability ([10]; first compound 0.8 µM): 0.521
- relative viability ([10]; first compound 2.53 µM): 0.602
- relative viability ([11]; first compound 0.08 µM): 1.17
- relative viability ([11]; first compound 0.253 µM): 0.789
- relative viability ([11]; first compound 0.8 µM): 1.39
- relative viability ([11]; first compound 2.53 µM): 1.34
- relative viability ([12]; first compound 0.08 µM): 0.811
- relative viability ([12]; first compound 0.253 µM): 0.824
- relative viability ([12]; first compound 0.8 µM): 1.05
- relative viability ([12]; first compound 2.53 µM): 1.01
- relative viability ([13]; first compound 0.08 µM): 0.722
- relative viability ([13]; first compound 0.253 µM): 0.467
- relative viability ([13]; first compound 0.8 µM): 0.903
- relative viability ([13]; first compound 2.53 µM): 0.728
- relative viability ([14]; first compound 0.08 µM): 0.982
- relative viability ([14]; first compound 0.253 µM): 0.833
- relative viability ([14]; first compound 0.8 µM): 1.11
- relative viability ([14]; first compound 2.53 µM): 0.969
- relative viability ([15]; first compound 0.08 µM): 0.614
- relative viability ([15]; first compound 0.253 µM): 0.545
- relative viability ([15]; first compound 0.8 µM): 0.653
- relative viability ([15]; first compound 2.53 µM): 0.477
- relative viability ([16]; first compound 0.08 µM): 0.789
- relative viability ([16]; first compound 0.8 µM): 0.803
- relative viability ([16]; first compound 2.53 µM): 0.742
- relative viability ([17]; first compound 0.08 µM): 1.23
- relative viability ([17]; first compound 0.253 µM): 1.08
- relative viability ([17]; first compound 0.8 µM): 1.03
- relative viability ([17]; first compound 2.53 µM): 1.11
- relative viability ([18]; first compound 0.08 µM): 0.208
- relative viability ([18]; first compound 0.253 µM): 0.322
- relative viability ([18]; first compound 0.8 µM): 0.248
- relative viability ([18]; first compound 2.53 µM): 0.314
- relative viability ([19]; first compound 0.08 µM): 1
- relative viability ([19]; first compound 0.253 µM): 0.888
- relative viability ([19]; first compound 0.8 µM): 0.937
- relative viability ([19]; first compound 2.53 µM): 1.02
- relative viability ([20]; first compound 0.08 µM): 0.931
- relative viability ([20]; first compound 0.253 µM): 0.964
- relative viability ([20]; first compound 0.8 µM): 1.01
- relative viability ([20]; first compound 2.53 µM): 0.98
- relative viability ([21]; first compound 0.08 µM): 1.04
- relative viability ([21]; first compound 0.253 µM): 0.783
- relative viability ([21]; first compound 0.8 µM): 0.863
- relative viability ([21]; first compound 2.53 µM): 0.878

SMILES: COc1nc(C)cnc1NS(=O)(=O)c1cccnc1-c1ccc(-c2nnco2)cc1 [Zibotentan] + Cc1nc(NC(=O)N2CCC[C@H]2C(N)=O)sc1-c1ccnc(C(C)(C)C(F)(F)F)c1 [Alpelisib] (partner 2 µM)
- relative viability ([1]; first compound 0.08 µM): 1.05
- relative viability ([1]; first compound 0.253 µM): 0.993
- relative viability ([1]; first compound 0.8 µM): 1.1
- relative viability ([1]; first compound 2.53 µM): 1.11
- relative viability ([2]; first compound 0.08 µM): 1.08
- relative viability ([2]; first compound 0.253 µM): 1.14
- relative viability ([2]; first compound 0.8 µM): 1.09
- relative viability ([2]; first compound 2.53 µM): 1.08
- relative viability ([3]; first compound 0.08 µM): 0.847
- relative viability ([3]; first compound 0.253 µM): 0.655
- relative viability ([3]; first compound 0.8 µM): 0.831
- relative viability ([3]; first compound 2.53 µM): 0.824
- relative viability ([4]; first compound 0.08 µM): 0.712
- relative viability ([4]; first compound 0.253 µM): 0.698
- relative viability ([4]; first compound 0.8 µM): 0.672
- relative viability ([4]; first compound 2.53 µM): 0.727
- relative viability ([5]; first compound 0.08 µM): 0.932
- relative viability ([5]; first compound 0.253 µM): 0.768
- relative viability ([5]; first compound 0.8 µM): 0.842
- relative viability ([5]; first compound 2.53 µM): 0.842
- relative viability ([6]; first compound 0.08 µM): 0.852
- relative viability ([6]; first compound 0.253 µM): 0.869
- relative viability ([6]; first compound 0.8 µM): 0.92
- relative viability ([6]; first compound 2.53 µM): 1.03
- relative viability ([7]; first compound 0.08 µM): 0.955
- relative viability ([7]; first compound 0.253 µM): 0.969
- relative viability ([7]; first compound 0.8 µM): 1.01
- relative viability ([7]; first compound 2.53 µM): 1.05
- relative viability ([8]; first compound 0.08 µM): 0.309
- relative viability ([8]; first compound 0.253 µM): 0.238
- relative viability ([8]; first compound 0.8 µM): 0.183
- relative viability ([8]; first compound 2.53 µM): 0.264
- relative viability ([9]; first compound 0.08 µM): 1.08
- relative viability ([9]; first compound 0.253 µM): 0.911
- relative viability ([9]; first compound 0.8 µM): 0.889
- relative viability ([9]; first compound 2.53 µM): 1.46
- relative viability ([10]; first compound 0.08 µM): 0.516
- relative viability ([10]; first compound 0.253 µM): 0.58
- relative viability ([10]; first compound 0.8 µM): 0.545
- relative viability ([10]; first compound 2.53 µM): 0.58
- relative viability ([11]; first compound 0.08 µM): 0.978
- relative viability ([11]; first compound 0.253 µM): 0.666
- relative viability ([11]; first compound 0.8 µM): 1.01
- relative viability ([11]; first compound 2.53 µM): 1.02
- relative viability ([12]; first compound 0.08 µM): 0.821
- relative viability ([12]; first compound 0.253 µM): 0.53
- relative viability ([12]; first compound 0.8 µM): 0.852
- relative viability ([12]; first compound 2.53 µM): 0.713
- relative viability ([13]; first compound 0.08 µM): 0.66
- relative viability ([13]; first compound 0.253 µM): 0.652
- relative viability ([13]; first compound 0.8 µM): 0.59
- relative viability ([13]; first compound 2.53 µM): 0.873
- relative viability ([14]; first compound 0.08 µM): 1.15
- relative viability ([14]; first compound 0.253 µM): 1.04
- relative viability ([14]; first compound 0.8 µM): 1.09
- relative viability ([14]; first compound 2.53 µM): 1.08
- relative viability ([15]; first compound 0.08 µM): 0.679
- relative viability ([15]; first compound 0.253 µM): 0.7
- relative viability ([15]; first compound 0.8 µM): 0.681
- relative viability ([15]; first compound 2.53 µM): 0.726
- relative viability ([16]; first compound 0.08 µM): 0.58
- relative viability ([16]; first compound 0.8 µM): 0.57
- relative viability ([16]; first compound 2.53 µM): 0.452
- relative viability ([17]; first compound 0.08 µM): 0.532
- relative viability ([17]; first compound 0.253 µM): 0.482
- relative viability ([17]; first compound 0.8 µM): 0.485
- relative viability ([17]; first compound 2.53 µM): 0.484
- relative viability ([18]; first compound 0.08 µM): 0.483
- relative viability ([18]; first compound 0.253 µM): 0.794
- relative viability ([18]; first compound 0.8 µM): 0.55
- relative viability ([18]; first compound 2.53 µM): 0.643
- relative viability ([19]; first compound 0.08 µM): 0.98
- relative viability ([19]; first compound 0.253 µM): 0.872
- relative viability ([19]; first compound 0.8 µM): 1.06
- relative viability ([19]; first compound 2.53 µM): 0.944
- relative viability ([20]; first compound 0.08 µM): 1.01
- relative viability ([20]; first compound 0.253 µM): 1.06
- relative viability ([20]; first compound 0.8 µM): 1.05
- relative viability ([20]; first compound 2.53 µM): 1.04
- relative viability ([21]; first compound 0.08 µM): 0.726
- relative viability ([21]; first compound 0.253 µM): 0.639
- relative viability ([21]; first compound 0.8 µM): 0.775
- relative viability ([21]; first compound 2.53 µM): 0.758
